Measurements published in PMC9530963, “A cathelicidin antimicrobial peptide from Hydrophis cyanocinctus inhibits Zika virus infection by downregulating expression of a viral entry factor” (The Journal of Biological Chemistry, 2022).

Experiments:
ZIKV = settings: i.v. peptide 2 h after i.v. ZIKV 10^6 PFU/mouse, qPCR
Description: At 4, 8, and 3 days post ZIKV inoculation, C57BL/6J mice, Ifnar1^−/− mice, and pregnant C57BL/6J mice were sacrificed, respectively. Tissues and fetal mice were collected for testing ZIKV RNA by qPCR. ns, not significant, ∗p < 0.05, ∗∗p < 0.01, and ∗∗∗p < 0.001. Hc-CATH, a cathelicidin antimicrobial peptide identified from the sea snake Hydrophis cyanocinctus; PFU, plaque-forming unit; qPCR, quantitative PCR; ZIKV, Zika virus.
To evaluate the therapeutic efficacy of Hc-CATH against ZIKV infection, C57BL/6J mice, Ifnar1^−/− mice, and pregnant C57BL/6J mice were intravenously administrated with Hc-CATH at 2 h after intravenous injection of ZIKV (10^6 PFU/mouse). C57BL/6J mice, Ifnar1^−/− mice, and pregnant C57BL/6J mice were sacrificed at 4, 8, and 3 days post ZIKV inoculation, respectively. Tissues and fetal mice were collected for testing ZIKV RNA level by qPCR.

AXL [1] = test: AXL level in Vero cells (Western blot, immunofluorescence); type: cell-based, Chlorocebus aethiops
Description: (§1) Figure 3 Hc-CATH downregulates AXL in Vero cell.A, schematic diagram of B and C. B, Vero cells were seeded in 24-well plates (5 × 10^4 cells/well) and cultured in DMEM containing 2% FBS. Hc-CATH (1.25, 2.5, and 5 μM), AC5 (2.5 μM), LL-37 (2.5 μM), or same volume of PBS (peptide solvent) was added to cells. After culture at 37 °C for 6, 12, and 24 h, the levels of ZIKV entry factors, including AXL, TYRO3, and TIM-1, were tested by Western blot, respectively. C, Vero cells were seeded in 8-well cover slip chambers (5 × 10^4 cells/well) and cultured in DMEM containing 2% FBS. Hc-CATH (1.25, 2.5, and 5 μM), AC5 (2.5 μM), LL-37 (2.5 μM), or same volume of PBS (peptide solvent) was added to cells. After culture at 37 °C for 24 h, the level of AXL was tested by immunofluorescence staining. The scale bar represents 50 μm. D, schematic diagram of E. E, Vero cells were seeded in 24-well plates (5 × 10^4 cells/well) and cultured in DMEM containing 2% FBS. Hc-CATH (1.25, 2.5, and 5 μM), AC5 (2.5 μM), LL-37 (2.5 μM), or same volume of PBS (peptide solvent) was added to cells and incubated at 37 °C for 2 h. […] Ratio of AXL to β-actin was analyzed by ImageJ.
(§2) Vero cells were incubated with Hc-CATH (1.25, 2.5, and 5 μM), AC5 (2.5 μM), LL-37 (2.5 μM), or PBS (solvent of peptide). […] The levels of ZIKV entry factors, including AXL, TYRO3, and TIM-1, were detected by WB analysis. […]

AXL [2] = test: AXL level in A549 cells (Western blot, immunofluorescence); type: cell-based, Homo sapiens; settings: 1.25, 2.5, and 5 μM, 24 h, with and without ZIKV challenge
Description: Figure 4 Hc-CATH downregulates AXL in A549 cell.A, schematic diagram of B and C. B, A549 cells were seeded in 24-well plates (5 × 10^4 cells/well) and cultured in DMEM containing 2% FBS. Hc-CATH (1.25, 2.5, and 5 μM) or same volume of PBS (peptide solvent) was added to cells and incubated at 37 °C for 24 h. The level of AXL was tested by Western blot. C, A549 cells were seeded in 8-well cover slip chambers (5 × 10^4 cells/well) and cultured in DMEM containing 2% FBS. Hc-CATH (1.25, 2.5, and 5 μM) or PBS was added to cells and incubated at 37 °C for 24 h. The level of AXL was tested by immunofluorescence staining. The scale bar represents 50 μm. D, schematic diagram of E and G. E and G, A549 cells were seeded in 24-well plates (5 × 10^4 cells/well) and cultured in DMEM containing 2% FBS. Hc-CATH (1.25, 2.5, and 5 μM) or PBS was added to cells and incubated at 37 °C for 2 h. Cells were washed with PBS and incubated with ZIKV (MOI = 1). After incubation at 37 °C for 2 h, cells were washed with PBS and cultured in DMEM containing 2% FBS.
The effect of Hc-CATH on AXL was further confirmed in A549 and U251 cells. A549 or U251 cells were incubated with Hc-CATH (1.25, 2.5, and 5 μM) or PBS at 37 °C for 24 h, and the level of AXL was detected by WB and IF, respectively. Upon ZIKV challenge, A549 or U251 cells were incubated with Hc-CATH (1.25, 2.5, and 5 μM) or PBS at 37 °C for 2 h. […]

TIM-1 = TIM-1 level in Vero cells (Western blot); type: cell-based, Chlorocebus aethiops; settings: 6, 12, and 24 h post Hc-CATH addition
Description: as §1, §2

Q: Which “ZIKV replication in C57BL/6J mice, therapeutic” value (ZIKV; 4 days, tissue ZIKV RNA) does the source give for “KFFKRLLKSVRRAVKKFRKKPRLIGLSTLL [Hc-CATH, cathelicidin antimicrobial peptide identified from the sea snake Hydrophis cyanocinctus]” here?
A: significantly attenuated ZIKV replication

Q: What about the “ZIKV replication in Ifnar1−/− mice, therapeutic” value (ZIKV; 8 days, tissue ZIKV RNA) of the same sequence?
A: significantly attenuated ZIKV replication

Q: And the “ZIKV replication in fetal placenta and fetal mice, therapeutic” value (ZIKV; pregnant C57BL/6J mice, 3 days)?
A: significantly attenuated ZIKV replication

Q: And the “level of AXL in Vero cells” value (AXL [1]; 1.25, 2.5, and 5 μM, 24 h, confirmed by immunofluorescence, relative to PBS)?
A: reduced the level of AXL

Q: What about the “level of AXL in Vero cells upon ZIKV infection” value (AXL [1]; peptide 2 h, then ZIKV MOI = 1, 24 h post Hc-CATH addition) of the same sequence?
A: decreased the level of AXL

Q: And the “level of AXL in A549 cells” value (AXL [2])?
A: effectively decreased the level of AXL

Q: What about the “level of TIM-1 in Vero cells” value (TIM-1) of the same sequence?
A: did not obviously influence
